In patent US8796256B2 (Janssen Pharmaceutica NV, priority 2010, dated 2014):

These compounds were tested against T1, ERR1 (also known as ERR-α or ERR-1) (Homo sapiens, UniProt P11474) (assay: TR-FRET assay (disruption of co-activator peptide binding to ERR1 LBD)). Conditions: 6 nM 6His-ERR1LBD, 6 nM GST-SRC-2 peptide; average of 3 independent experiments.
T1 sequence (P11474 193-421 limits assumed): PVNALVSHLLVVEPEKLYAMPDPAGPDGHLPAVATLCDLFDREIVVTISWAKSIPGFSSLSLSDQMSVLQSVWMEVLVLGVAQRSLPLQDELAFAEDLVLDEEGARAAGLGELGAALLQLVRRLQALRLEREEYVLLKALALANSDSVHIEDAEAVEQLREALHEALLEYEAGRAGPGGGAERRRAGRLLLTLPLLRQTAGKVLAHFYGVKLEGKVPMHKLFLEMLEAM
Assay type: biochemical
How it was run: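 Homogeneous TR-FRET measuring displacement of GST-hSRC2 co-activator peptide (6 nM) from His-tagged ERR1 LBD (6 nM), detected with α-GST Eu cryptate (30 nM) and α-His-XL665 (7.5 nM). Buffer 25 mM Tris pH 8, 2.5 mM Hepes, 20 mM KCl, 1 mM DTT, 0.05 mg/mL delipidated BSA; equilibration 4-18 h at 25° C. Hyperbolic dose-response fit, mean of 3 experiments.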

Compound | EC50 [nM]
O=C1S/C(=C\c2ccc3c(cnn3Cc3ccc(Cl)cc3C(F)(F)F)c2)C(=O)N1CC(O)C1CCNCC1 (centres unmarked) [Compound 285, (5Z)-5-({1-[4-Chloro-2-(trifluoromethyl)benzyl]-1H-indazol-5-yl}methylidene)-3-(2-hydroxy-2-piperidin-4-ylethyl)-1,3-thiazolidine-2,4-dione] | 38
O=C1S/C(=C\c2ccc3c(cnn3Cc3ccc(Cl)cc3C(F)(F)F)c2)C(=O)N1OCCN1CCCC1 [Compound 289, (5Z)-5-({1-[4-Chloro-2-(trifluoromethyl)benzyl]-1H-indazol-5-yl}methylidene)-3-(2-pyrrolidin-1-ylethoxy)-1,3-thiazolidine-2,4-dione] | 17
O=C1S/C(=C\c2ccc3c(cnn3Cc3ccc(C(F)(F)F)cc3C(F)(F)F)c2)C(=O)N1O [Compound 291, (5Z)-5-({1-[2,4-Bis(trifluoromethyl)benzyl]-1H-indazol-5-yl}methylidene)-3-hydroxy-1,3-thiazolidine-2,4-dione] | 47
O=C1S/C(=C\c2ccc3c(cnn3Cc3ccc(Cl)cc3C(F)(F)F)c2)C(=O)N1C[C@H](O)CNCCF [Compound 295, (5Z)-5-({1-[4-Chloro-2-(trifluoromethyl)benzyl]-1H-indazol-5-yl}methylidene)-3-{(2R)-3-[(2-fluoroethyl)amino]-2-hydroxypropyl}-1,3-thiazolidine-2,4-dione] | 66
O=C1S/C(=C\c2ccc3c(cnn3Cc3ccc(Cl)cc3C(F)(F)F)c2)C(=O)N1CCn1ccnc1 [Compound 296, (5Z)-5-({1-[4-Chloro-2-(trifluoromethyl)benzyl]-1H-indazol-5-yl}methylidene)-3-[2-(1H-imidazol-1-yl)ethyl]-1,3-thiazolidine-2,4-dione] | 17
NC(=O)CN1CCC[C@H]1CN1C(=O)S/C(=C\c2ccc3c(cnn3Cc3ccc(Cl)cc3C(F)(F)F)c2)C1=O [Compound 297, 2-[(2S)-2-{[(5Z)-5-({1-[4-Chloro-2-(trifluoromethyl)benzyl]-1H-indazol-5-yl}methylidene)-2,4-dioxo-1,3-thiazolidin-3-yl]methyl}pyrrolidin-1-yl]acetamide] | 76
NC(=O)CN1CCC[C@@H]1CN1C(=O)S/C(=C\c2ccc3c(cnn3Cc3ccc(Cl)cc3C(F)(F)F)c2)C1=O [Compound 298, 2-[(2R)-2-{[(5Z)-5-({1-[4-Chloro-2-(trifluoromethyl)benzyl]-1H-indazol-5-yl}methylidene)-2,4-dioxo-1,3-thiazolidin-3-yl]methyl}pyrrolidin-1-yl]acetamide] | 49

More lines, in order of falling EC50, values ahead:

EC50 [nM] | Compound
63 | O=C1S/C(=C\c2ccc3c(cnn3Cc3ccc(Cl)cc3C(F)(F)F)c2)C(=O)N1C[C@H](O)CN1CC[C@@H](F)C1 [Compound 294, (5Z)-5-({1-[4-Chloro-2-(trifluoromethyl)benzyl]-1H-indazol-5-yl}methylidene)-3-{(2R)-3-[(3R)-3-fluoropyrrolidin-1-yl]-2-hydroxypropyl}-1,3-thiazolidine-2,4-dione]
49 | O=C1S/C(=C\c2ccc3c(cnn3Cc3ccc(Cl)cc3C(F)(F)F)c2)C(=O)N1C[C@@H](O)CN1CCCC1 [Compound 292, (5Z)-5-({1-[4-Chloro-2-(trifluoromethyl)benzyl]-1H-indazol-5-yl}methylidene)-3-[(2S)-2-hydroxy-3-pyrrolidin-1-ylpropyl]-1,3-thiazolidine-2,4-dione]
35 | CN(C)C[C@H](O)CN1C(=O)S/C(=C\c2ccc3c(cnn3Cc3ccc(Cl)cc3C(F)(F)F)c2)C1=O [Compound 293, (5Z)-5-({1-[4-Chloro-2-(trifluoromethyl)benzyl]-1H-indazol-5-yl}methylidene)-3-[(2S)-3-(dimethylamino)-2-hydroxypropyl]-1,3-thiazolidine-2,4-dione]
29 | O=C1S/C(=C\c2ccc3c(c2)nnn3Cc2ccc(Cl)cc2C(F)(F)F)C(=O)N1O [Compound 290, (5Z)-5-({1-[4-Chloro-2-(trifluoromethyl)benzyl]-1H-benzotriazol-5-yl}methylidene)-3-hydroxy-1,3-thiazolidine-2,4-dione]
